Experimental data as given in patent publication US12018023B2 (NERVIANO MEDICAL SCIENCES S.R.L., priority 2018, dated 2024).

How the values were obtained:
[1] = target: T1, IDH1^R132H homodimer enzyme (Homo sapiens, UniProt O75874, R132H); test: NADPH depletion assay, IDH1 R132H; type: biochemical
T1 construct: purchased not specified
Method: (§1) IDH mutated enzyme activity converting alpha-ketoglutarate to 2-hydroxyglutaric acid is measured using a NADPH depletion assay. In the assay the remaining cofactor is measured at the end of the reaction with the addition of a catalytic excess of diaphorase and resazurin, to generate a fluorescent signal in proportion to the amount of NADPH remaining. IDH1 WT enzyme as well as mutated isoforms IDH1^R132H, IDH1^R132C, and IDH^2R172K enzymes are commercially available proteins (see e.g. Sino Biological, Abcam, Active Motif or Creative BioMart).
(§2) IDH1^R132H homodimer enzyme are diluted to 8 nM, in 10 μL of Assay Buffer (150 mM NaCl, 50 mM Tris-HCl pH 7.6, 10 mM MgCl2, 0.001% Triton X-100, 4 mM β-mercaptoethanol); 0.2 uL of test compound, previously serially diluted 1 to 3, >10 experimental points from 1 mM in DMSO, is added and the mixture is incubated for 15 minutes at room temperature. The reaction is started with the addition of 10 μL of Substrate Mix (12 uM NADPH, 3.4 mM alpha-ketoglutarate in Assay Buffer) and the mixture is incubated for 60 minutes at room temperature. The reaction is terminated with the addition of 5 μl of Detection Buffer (100 μg/mL diaphorase, 30 μM resazurin, in IX Assay Buffer), and is incubated for 15 minute before reading on a ViewLux as platereader at Ex544/Em590.

IDH1^R132C = target: T2, IDH1^R132C (Homo sapiens, UniProt O75874, R132C); test: NADPH depletion assay, IDH1 R132C; type: biochemical
T2 construct: purchased not specified
T2 sequence (O75874 whole entry R132C): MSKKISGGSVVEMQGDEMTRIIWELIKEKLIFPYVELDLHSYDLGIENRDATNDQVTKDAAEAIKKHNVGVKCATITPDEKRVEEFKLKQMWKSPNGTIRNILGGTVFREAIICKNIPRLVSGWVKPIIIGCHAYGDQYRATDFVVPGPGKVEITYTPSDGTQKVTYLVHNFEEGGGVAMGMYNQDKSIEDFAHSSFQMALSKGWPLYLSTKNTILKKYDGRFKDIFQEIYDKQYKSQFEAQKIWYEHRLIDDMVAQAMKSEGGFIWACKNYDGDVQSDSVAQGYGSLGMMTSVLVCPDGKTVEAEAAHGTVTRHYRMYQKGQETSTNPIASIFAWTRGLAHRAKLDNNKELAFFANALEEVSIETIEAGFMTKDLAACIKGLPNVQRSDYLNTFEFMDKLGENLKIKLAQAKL
Method: as §1, §2
Compounds are assayed for their activity against IDH1^R132C following the same assay as above with the following modifications: IDH1^R132C and alpha-ketoglutarate final concentrations in the Assay Buffer is 2 nM and 0.14 mM, respectively.

T1 sequence (O75874 whole entry R132H): as the sequence (O75874 whole entry R132C) above, with C132H counted along it

Structure (SMILES)	IC50 [1] [nM]	IC50 (IDH1^R132C) [nM]
C[C@H](Nc1ncc2ccc(=O)n(CC(C)(C)CO)c2n1)c1ccc(CN2CCC(F)(F)CC2)cc1 [cpd 55, 2-{(S)-1-[4-(4,4-Difluoro-piperidin-1-ylmethyl)-phenyl]-ethylamino}-8-(3-hydroxy-2,2-dimethyl-propyl)-8H-pyrido[2,3-d]pyrimidin-7-one]	137	65
C[C@H](Nc1ncc2cc(F)c(=O)n(CC(C)(C)C)c2n1)c1ccc(CN2CCCC(F)(F)C2)cc1 [cpd 57, 2-{(S)-1-[4-(3,3-Difluoro-piperidin-1-ylmethyl)-phenyl]-ethylamino}-8-(2,2-dimethyl-propyl)-6-fluoro-8H-pyrido [2,3-d]pyrimidin-7-one]	543	208
Cc1cc(=O)n(CC(C)(C)C)c2nc(N[C@@H](C)c3ccc(CN4CCCC(F)(F)C4)cc3)ncc12 [cpd 60, 2-{(S)-1-[4-(3,3-Difluoro-piperidin-1-ylmethyl)-phenyl]-ethylamino}-8-(2,2-dimethyl-propyl)-5-methyl-8H-pyrido [2,3-d]pyrimidin-7-one]	341	139
CC[C@H](Nc1ncc2ccc(=O)n(CC(C)(C)C)c2n1)c1ccccc1 [cpd 70, 8-(2,2-dimethylpropyl)-2-{[(1S)-1-phenylpropyl]amino}pyrido[2,3-d]pyrimidin-7(8H)-one]	478	177
C[C@H](Nc1ncc2ccc(=O)n(Cc3c(F)cccc3F)c2n1)c1ccc(C(=O)NC2CCN(C)CC2)cc1 [cpd 76, 4-[(1S)-1-{[8-(2,6-difluorobenzyl)-7-oxo-pyrido[2,3-d]pyrimidin-2-yl]amino}ethyl]-N-(1-methylpiperidin-4-yl)benzamide]	2380	3630
C[C@H](Nc1ncc2ccc(=O)n(Cc3c(F)cccc3F)c2n1)c1ccc(C(=O)NC2CCOCC2)cc1 [cpd 78, 4-[(1S)-1-{[8-(2,6-difluorobenzyl)-7-oxo-pyrido[2,3-d]pyrimidin-2-yl]amino}ethyl]-N-(tetrahydro-2H-pyran-4-yl) benzamide]	896	1380
C[C@H](Nc1ncc2ccc(=O)n(CC(C)(C)C)c2n1)c1ccc(C(=O)NC2CCCC2)cc1 [cpd 80, N-cyclopentyl-4-[(1S)-1-{[8-(2,2-dimethylpropyl)-7-oxo-pyrido[2,3-d]pyrimidin-2-yl]amino}ethyl]benzamide]	444	282
CC(Nc1ncc2ccc(=O)n(CC(C)(C)C)c2n1)c1ccc(C(=O)NC2CCC(F)(F)CC2)c(F)c1 (centres unmarked) [cpd 84, N-(4,4-difluorocyclohexyl)-4-(1-{[8-(2,2-dimethylpropyl)-7-oxo-pyrido[2,3-d]pyrimidin-2-yl]amino}ethyl)-2-fluorobenzamide]	190	150
C[C@H](Nc1ncc2ccc(=O)n(CC(C)(C)C)c2n1)c1ccc(C(=O)NC2CCC(F)(F)CC2)c(Cl)c1 [cpd 88, 2-chloro-N-(4,4-difluorocyclohexyl)-4-[(1S)-1-{[8-(2,2-dimethylpropyl)-7-oxo-7,8-dihydropyrido[2,3-d]pyrimidin-2-yl]amino}ethyl]benzamide]	138	97
CC(Nc1ncc2ccc(=O)n(CCF)c2n1)c1ccc(CN2CCC(F)(F)CC2)cc1 (centres unmarked) [cpd 100, 2-[(1-{4-[(4,4-difluoropiperidin-1-yl)methyl]phenyl}ethyl)amino]-8-(2-fluoroethyl)pyrido[2,3-d]pyrimidin-7(8H)-one]	3060	1590
CCCn1c(=O)ccc2cnc(N[C@@H](C)c3ccc(CN4CCCCCC4)cc3)nc21 [cpd 102, 2-({(1S)-1-[4-(azepan-1-ylmethyl)phenyl]ethyl}amino)-8-propylpyrido[2,3-d]pyrimidin-7(8H)-one]	4320	2800
CCCn1c(=O)ccc2cnc(N[C@@H](C)c3ccc(CN4CCN(C(C)=O)CC4)cc3)nc21 [cpd 103, 2-{[(1S)-1-{4-[(4-acetylpiperazin-1-yl)methyl]phenyl}ethyl]amino}-8-propylpyrido[2,3-d]pyrimidin-7(8H)-one]	1590	634
C[C@H](Nc1ncc2ccc(=O)n(CC(F)(CF)CF)c2n1)c1ccc(CN2CCC(F)(F)CC2)cc1 [cpd 107, 8-[2,3-difluoro-2-(fluoromethyl)propyl]-2-{[(1S)-1-{4-[(4,4-difluoropiperidin-1-yl)methyl]phenyl)ethyl]amino) pyrido[2,3-d]pyrimidin-7(8H)-one]	722	459

The remaining lines, values ahead:

IC50 [1] [nM]	IC50 (IDH1^R132C) [nM]	Structure (SMILES)
290	123	CCOC(=O)C(C)n1c(=O)ccc2cnc(N[C@@H](C)c3ccc(CN4CCCC(F)(F)C4)cc3)nc21 (stereo partly drawn) [cpd 63, ethyl 2-[2-{[(1S)-1-{4-[(3,3-difluoropiperidin-1-yl)methyl]phenyl}ethyl]amino}-7-oxopyrido[2,3-d]pyrimidin-8(7H)-yl]propanoate]
210	133	CC(C#N)n1c(=O)ccc2cnc(N[C@@H](C)c3ccc(CN4CCCC(F)(F)C4)cc3)nc21 (stereo partly drawn) [cpd 64, 2-[2-{[(1S)-1-{4-[(3,3-difluoropiperidin-1-yl)methyl]phenyl}ethyl]amino}-7-oxopyrido[2,3-d]pyrimidin-8(7H)-yl]propanenitrile]
2590	1240	C[C@H](Nc1ncc2ccc(=O)n(Cc3ccc(O)cc3)c2n1)c1ccc(Cl)cc1 [cpd 72, 2-{[(1S)-1-(4-chlorophenyl)ethyl]amino}-8-(4-hydroxybenzyl)pyrido[2,3-d]pyrimidin-7(8H)-one]
529	357	C[C@H](Nc1ncc2ccc(=O)n(CC(C)(C)C)c2n1)c1ccc(C(=O)NC2CCC(F)(F)CC2)cc1 [cpd 79, N-(4,4-difluorocyclohexyl)-4-[(1S)-1-{[8-(2,2-dimethylpropyl)-7-oxo-pyrido[2,3-d]pyrimidin-2-yl]amino}ethyl]benzamide]
288	172	C[C@H](Nc1ncc2ccc(=O)n(CC(C)(C)C)c2n1)c1ccc(C(=O)NC2CCCCC2)cc1 [cpd 81, N-cyclohexyl-4-[(1S)-1-{[8-(2,2-dimethylpropyl)-7-oxo-pyrido[2,3-d]pyrimidin-2-yl]amino}ethyl] benzamide]
1770	1460	C[C@H](Nc1ncc2ccc(=O)n(CC(C)(C)C)c2n1)c1ccc(C(=O)NC2CC(F)(F)C2)cc1 [cpd 85, N-(3,3-difluorocyclobutyl)-4-[(1S)-1-{[8-(2,2-dimethylpropyl)-7-oxo-pyrido[2,3-d]pyrimidin-2-yl]amino}ethyl]benzamide]
697	391	C[C@H](Nc1ncc2ccc(=O)n(CC(C)(C)C)c2n1)c1ccc(CO)c(F)c1 [cpd 90, 8-(2,2-dimethylpropyl)-2-({(1S)-1-[3-fluoro-4-(hydroxymethyl)phenyl]ethyl}amino)pyrido[2,3-d]pyrimidin-7(8H)-one]
713	715	C[C@H](Nc1ncc2ccc(=O)n(Cc3c(F)cccc3F)c2n1)c1ccc(CO)cc1 [cpd 92, 8-(2,6-difluorobenzyl)-2-({(1S)-1-[4-(hydroxymethyl)phenyl]ethyl}amino)pyrido[2,3-d]pyrimidin-7(8H)-one]
459	307	C[C@H](Nc1ncc2ccc(=O)n(CC(C(F)(F)F)C(F)(F)F)c2n1)c1ccc(CN2CCC(F)(F)CC2)cc1 [cpd 108, 2-{[(1S)-1-{4-[(4,4-difluoropiperidin-1-yl)methyl]phenyl)ethyl]amino)-8-[3,3,3-trifluoro-2-(trifluoromethyl)propyl]pyrido[2,3-d]pyrimidin-7(8H)-one]
